Test results from ChEMBL document CHEMBL1201862, “PubChem BioAssay data set” (2004).
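Cells were grown in 96-well plates and exposed to each compound for 48 hours at five concentrations; endpoints were interpolated linearly between bracketing concentrations, or set to the highest concentration if not reached. Here, GI50 denotes the concentration required for 50% inhibition of growth.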 The source made the active and inactive calls. Cut-off read from the data, not from the text of the source: active = GI50 up to about 1.1 µM and inactive = higher.

What was measured:
Assay in all cases: NCI-60 cell line screen, 48 h
HOP-62 = test system: HOP-62
HCT-15 = test system: HCT-15
SF-539 = test system: SF-539
A498 = test system: A498
RPMI-8226 = test system: RPMI-8226
Malme-3M = test system: Malme-3M
UO-31 = test system: UO-31
RXF 393 = test system: RXF 393
M14 = test system: M14
SK-MEL-5 = test system: SK-MEL-5
HCC 2998 = test system: HCC 2998
NCI-H226 = test system: NCI-H226
UACC-62 = test system: UACC-62
SNB-75 = test system: SNB-75
NCI-H23 = test system: NCI-H23
TK-10 = test system: TK-10
ACHN = test system: ACHN
SW-620 = test system: SW-620
HL-60 = test system: HL-60

| Structure (SMILES) | GI50 (HOP-62) | GI50 (HCT-15) [µM] | GI50 (SF-539) | GI50 (A498) | GI50 (RPMI-8226) | GI50 (Malme-3M) | GI50 (UO-31) | GI50 (RXF 393) | GI50 (M14) | GI50 (SK-MEL-5) | GI50 (HCC 2998) | GI50 (NCI-H226) | GI50 (UACC-62) | GI50 (SNB-75) | GI50 (NCI-H23) | GI50 (TK-10) | GI50 (ACHN) | GI50 (SW-620) | GI50 (HL-60) |
| --- | --- | --- | --- | --- | --- | --- | --- | --- | --- | --- | --- | --- | --- | --- | --- | --- | --- | --- | --- |
| CCOC(=O)C1=C(NC)OCC1=O | > 100 µM (inactive) | > 100 | > 100 µM (inactive) | > 100 µM (inactive) | > 100 µM (inactive) | > 100 µM (inactive) | > 100 µM (inactive) | > 100 µM (inactive) | > 100 µM (inactive) | > 100 µM (inactive) | > 100 µM (inactive) | > 100 µM (inactive) | > 100 µM (inactive) | > 100 µM (inactive) | > 100 µM (inactive) | > 100 µM (inactive) | > 100 µM (inactive) | > 100 µM (inactive) | > 100 µM (inactive) |
| Cc1cc(S(=O)(=O)Nc2nc(N)nc(N(C)C)n2)c(SCC(=O)O)cc1Cl | > 10 µM (inactive) | > 10 | > 10 µM (inactive) | > 10 µM (inactive) | > 10 µM (inactive) | > 10 µM (inactive) | > 10 µM (inactive) | > 10 µM (inactive) | > 10 µM (inactive) | > 10 µM (inactive) | > 10 µM (inactive) | > 10 µM (inactive) | – | > 10 µM (inactive) | > 10 µM (inactive) | > 10 µM (inactive) | > 10 µM (inactive) | > 10 µM (inactive) | > 10 µM (inactive) |
| CC#N.O[C@@H]1CCCC[C@@H]1O.O[C@@H]1CCCC[C@@H]1O.[TeH2] | 41.7 µM (inactive) | 18.8 | > 100 µM (inactive) | 30.4 µM (inactive) | 37.2 µM (inactive) | > 100 µM (inactive) | 57.1 µM (inactive) | 72.3 µM (inactive) | > 100 µM (inactive) | 40.6 µM (inactive) | > 100 µM (inactive) | 40.6 µM (inactive) | > 100 µM (inactive) | > 100 µM (inactive) | 21.2 µM (inactive) | > 100 µM (inactive) | 33.2 µM (inactive) | 18.6 µM (inactive) | 15.4 µM (inactive) |
| CCCCCCCSCC1OC(n2cnc3c(N)ncnc32)C(O)C1O (stereo unspecified) | – | 4.5 | 32.7 µM (inactive) | 14.2 µM (inactive) | 12.6 µM (inactive) | 49.3 µM (inactive) | – | > 100 µM (inactive) | 22.5 µM (inactive) | 16.2 µM (inactive) | 20.9 µM (inactive) | > 100 µM (inactive) | – | 24 µM (inactive) | > 100 µM (inactive) | > 100 µM (inactive) | 25.9 µM (inactive) | 13.3 µM (inactive) | 3.01 µM (inactive) |
| O=C1c2ccccc2CCCCCCCCCCC12OCCCO2 | 49.9 µM (inactive) | 25.8 | 58.1 µM (inactive) | 32.1 µM (inactive) | 15.5 µM (inactive) | 30.9 µM (inactive) | 79.3 µM (inactive) | 10.6 µM (inactive) | 51.3 µM (inactive) | 35.6 µM (inactive) | 25.4 µM (inactive) | 35.6 µM (inactive) | 82.2 µM (inactive) | 25.6 µM (inactive) | 40.3 µM (inactive) | > 100 µM (inactive) | 52.4 µM (inactive) | – | 16 µM (inactive) |
| CN(C)CC1(Cc2ccccc2)CC/C(=C\c2ccccc2)C1=O (stereo unspecified) | > 100 µM (inactive) | 19.8 | 24.9 µM (inactive) | 33.1 µM (inactive) | 23.9 µM (inactive) | 44 µM (inactive) | 47.8 µM (inactive) | 35.6 µM (inactive) | 49.3 µM (inactive) | 22.5 µM (inactive) | 19.9 µM (inactive) | 92.9 µM (inactive) | 15.1 µM (inactive) | 57.3 µM (inactive) | 44.8 µM (inactive) | > 100 µM (inactive) | 50.7 µM (inactive) | 20.8 µM (inactive) | 20.4 µM (inactive) |
| CC(C)Cc1ccc(C(C)C(=O)N2CCN(/C=C/c3ccccc3)CC2)cc1 (stereo unspecified) | 15.8 µM (inactive) | 13.8 | 15.2 µM (inactive) | 16.4 µM (inactive) | 5.04 µM (inactive) | 16.3 µM (inactive) | 10.5 µM (inactive) | 14.1 µM (inactive) | – | 12.1 µM (inactive) | 17.9 µM (inactive) | 12.6 µM (inactive) | 13.4 µM (inactive) | 14 µM (inactive) | 13.2 µM (inactive) | – | – | 15.6 µM (inactive) | 3.94 µM (inactive) |
| CC(=O)OCCOCNC(=S)N/N=C(\C)c1cnc2ccccc2n1 | 86.3 µM (inactive) | 34 | 55.8 µM (inactive) | > 100 µM (inactive) | 47.8 µM (inactive) | 40.6 µM (inactive) | 41.5 µM (inactive) | 33 µM (inactive) | 36 µM (inactive) | 25.1 µM (inactive) | 32.7 µM (inactive) | 36.4 µM (inactive) | 14.2 µM (inactive) | 52.7 µM (inactive) | 72.8 µM (inactive) | > 100 µM (inactive) | 11.5 µM (inactive) | 28.2 µM (inactive) | 15.9 µM (inactive) |
| O=c1cc[nH]c2c1ccc1ncccc12 | > 100 µM (inactive) | > 100 | > 100 µM (inactive) | > 100 µM (inactive) | – | > 100 µM (inactive) | > 100 µM (inactive) | > 100 µM (inactive) | > 100 µM (inactive) | > 100 µM (inactive) | > 100 µM (inactive) | > 100 µM (inactive) | > 100 µM (inactive) | > 100 µM (inactive) | > 100 µM (inactive) | > 100 µM (inactive) | > 100 µM (inactive) | > 100 µM (inactive) | > 100 µM (inactive) |
| CC(C)OC(=O)c1cc(NC(=O)C(C)(C)C)c(F)cc1Cl | > 100 µM (inactive) | > 100 | > 100 µM (inactive) | > 100 µM (inactive) | > 100 µM (inactive) | > 100 µM (inactive) | > 100 µM (inactive) | > 100 µM (inactive) | > 100 µM (inactive) | > 100 µM (inactive) | > 100 µM (inactive) | > 100 µM (inactive) | > 100 µM (inactive) | > 100 µM (inactive) | > 100 µM (inactive) | > 100 µM (inactive) | > 100 µM (inactive) | > 100 µM (inactive) | 62.5 µM (inactive) |
| C/N=c1\ss/c(=N\C(=S)N(C)C)n1-c1ccccc1 | > 80.7 µM (inactive) | > 100 | 31 µM (inactive) | 44.6 µM (inactive) | > 100 µM (inactive) | > 100 µM (inactive) | > 55.7 µM (inactive) | > 48.2 µM (inactive) | > 100 µM (inactive) | > 20.7 µM (inactive) | > 100 µM (inactive) | > 100 µM (inactive) | > 22.9 µM (inactive) | 17.3 µM (inactive) | > 68.1 µM (inactive) | > 100 µM (inactive) | > 100 µM (inactive) | > 100 µM (inactive) | > 100 µM (inactive) |
| CCOC(=O)/C=C/n1c2ccccc2c(=O)c2cc(OC)ccc21 | > 100 µM (inactive) | 39.9 | > 100 µM (inactive) | > 100 µM (inactive) | – | > 100 µM (inactive) | > 100 µM (inactive) | > 100 µM (inactive) | > 100 µM (inactive) | > 100 µM (inactive) | > 100 µM (inactive) | > 100 µM (inactive) | > 100 µM (inactive) | 51.5 µM (inactive) | 57.1 µM (inactive) | 74.5 µM (inactive) | > 100 µM (inactive) | – | > 100 µM (inactive) |
| C/C(=N\NC(=S)Nc1ccc([N+](=O)[O-])cc1S(=O)(=O)O)c1ccccn1 | 76.9 µM (inactive) | 37.6 | 46.3 µM (inactive) | 36.7 µM (inactive) | 40 µM (inactive) | 95.9 µM (inactive) | 45.6 µM (inactive) | 38.8 µM (inactive) | 64 µM (inactive) | 57.8 µM (inactive) | 30.9 µM (inactive) | 37.4 µM (inactive) | 73.8 µM (inactive) | 43 µM (inactive) | 69.3 µM (inactive) | 37.4 µM (inactive) | 62.4 µM (inactive) | 26.5 µM (inactive) | 31.7 µM (inactive) |
| COC(=O)[C@H](Cc1ccccc1)NC(=O)/C(=C/C(C)C)NC(=O)[C@H](CCSC)NC=O | > 100 µM (inactive) | > 100 | > 100 µM (inactive) | > 100 µM (inactive) | > 100 µM (inactive) | – | > 100 µM (inactive) | > 100 µM (inactive) | > 100 µM (inactive) | > 100 µM (inactive) | > 100 µM (inactive) | > 100 µM (inactive) | > 100 µM (inactive) | > 100 µM (inactive) | > 100 µM (inactive) | > 100 µM (inactive) | > 100 µM (inactive) | > 100 µM (inactive) | > 100 µM (inactive) |
| COC(=O)c1ccc(/N=N/N(C)COc2ccc(Br)cc2)cc1 | > 100 µM (inactive) | > 89.7 | > 100 µM (inactive) | 37.7 µM (inactive) | 24.5 µM (inactive) | > 100 µM (inactive) | > 100 µM (inactive) | 80.4 µM (inactive) | – | 55.3 µM (inactive) | 31.7 µM (inactive) | > 100 µM (inactive) | 60 µM (inactive) | 57.3 µM (inactive) | > 68.5 µM (inactive) | – | – | > 90.2 µM (inactive) | 20.2 µM (inactive) |
| CC12CCC(C(=O)N3CC=CCC3)(OC1=O)C2(C)C (stereo unspecified) | > 100 µM (inactive) | > 100 | > 100 µM (inactive) | > 100 µM (inactive) | > 100 µM (inactive) | > 100 µM (inactive) | > 100 µM (inactive) | > 100 µM (inactive) | – | > 100 µM (inactive) | > 69 µM (inactive) | > 100 µM (inactive) | > 100 µM (inactive) | > 100 µM (inactive) | > 100 µM (inactive) | – | – | > 100 µM (inactive) | > 100 µM (inactive) |
